Data reported in patent US12414952B2 (Merck Sharp & Dohme LLC, priority 2018, dated 2025).

Legend:
[1] = molecular target: human A2b adenosine receptor (Homo sapiens (Human), UniProt P29275); assay: A2b binding affinity, radioligand filtration binding assay; settings: tritiated proprietary A2b antagonist, HEK293 membranes
Description: Measurement of A2b Binding Affinity
The reported affinity of the compounds of the invention for the human A2b adenosine receptor was determined experimentally using a radioligand filtration binding assay. This assay measures the amount of binding of a tritiated proprietary A2b receptor antagonist, in the presence and absence of a compound of the invention, to membranes made from HEK293 cells recombinantly expressing the human A2b adenosine receptor (Perkin Elmer, Cat. No. ES-013-C).
The filter plate was incubated for at least 1 h at 55° C. and allowed to dry. The bottom of the filter plate was then sealed with backing tape. […] The plates were then incubated for at least 20 min, and then the amount of radioactivity remaining in each well was determined using a TopCount® (Perkin Elmer) scintillation counter. After normalization to total and non-specific binding, the percent effect at each compound concentration was calculated. The plot of percent effect versus the log of compound concentration was analyzed electronically using a 4-parameter logistic fit based on the Levenberg-Marquardt algorithm to generate IC50 values.

[2] = molecular target: human A2a adenosine receptor (Homo sapiens (Human), UniProt P29274); assay: A2a binding affinity using radioligand binding, Method (A); settings: Method (A): [3H]SCH58261 filtration binding
human A2a adenosine receptor, sequence (P29274 whole entry): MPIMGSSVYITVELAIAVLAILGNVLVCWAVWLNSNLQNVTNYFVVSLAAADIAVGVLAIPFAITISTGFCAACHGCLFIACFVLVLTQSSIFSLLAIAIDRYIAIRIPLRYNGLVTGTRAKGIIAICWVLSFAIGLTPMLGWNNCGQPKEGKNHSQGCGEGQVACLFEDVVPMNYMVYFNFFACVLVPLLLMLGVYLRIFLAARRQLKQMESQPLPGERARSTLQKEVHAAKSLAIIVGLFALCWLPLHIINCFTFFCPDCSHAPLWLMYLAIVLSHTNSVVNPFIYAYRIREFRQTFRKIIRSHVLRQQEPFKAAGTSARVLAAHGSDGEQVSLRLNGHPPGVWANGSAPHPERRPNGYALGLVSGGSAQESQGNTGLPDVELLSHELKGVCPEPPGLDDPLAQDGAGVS
From the text: The A2a receptor affinity binding assay measured the amount of binding of a tritiated ligand with high affinity for the A2a adenosine receptor to membranes made from HEK293 or CHO cells recombinantly expressing the human A2a adenosine receptor, in the presence of varying concentrations of a compound of the invention. The data were generated using either filtration binding or a homogenous scintillation proximity assay (SPA).
Method (A): Measurement of A2a Binding Affinity Using Radioligand Binding
148 μL (5 μg/mL) membranes (Perkin Elmer, Cat. No. RBHA2aM400UA) and 2 μL compounds of the invention to be tested (test compound) were transferred to individual wells of a 96-well polypropylene assay plate and incubated for 15 to 30 min at room temperature. [^3H] SCH58261 ((7-(2-phenylethyl)-5-amino-2-(2-furyl)-pyrazolo-[4,3-e]-1,2,4-triazolo[1,5-c]pyrimidine)) was diluted in assay buffer (50 mM Tris pH 7.4, 10 mM MgCl2, 0.005% Tween20) to a concentration of 4 nM and 50 μL transferred to each well of the assay plate. […] The assay plate was incubated at room temperature for 60 min with agitation. […] Filtering was achieved by aspirating the contents of the assay plate for 5 sec, then washing and aspirating the contents three times with ice-cooled wash buffer (50 mM Tris-HCl pH 7.4, 150 mM NaCl) and allowing the vacuum manifold to dry the plate for […]. The filter plate was incubated for at least 1 h at 55° C. and allowed to dry. The bottom of the filter plate was sealed with backing tape. […] The plate was incubated for at least 20 min, and then the amount of radioactivity remaining in each well was determined using a TopCount® (Perkin Elmer) scintillation counter. After normalization to total and non-specific binding, the percent effect at each compound concentration was calculated. The plot of percent effect versus the log of compound concentration was analyzed electronically using a 4-parameter logistic fit based on the Levenberg-Marquardt algorithm to generate IC50 values.

human A2b adenosine receptor, sequence (P29275 whole entry): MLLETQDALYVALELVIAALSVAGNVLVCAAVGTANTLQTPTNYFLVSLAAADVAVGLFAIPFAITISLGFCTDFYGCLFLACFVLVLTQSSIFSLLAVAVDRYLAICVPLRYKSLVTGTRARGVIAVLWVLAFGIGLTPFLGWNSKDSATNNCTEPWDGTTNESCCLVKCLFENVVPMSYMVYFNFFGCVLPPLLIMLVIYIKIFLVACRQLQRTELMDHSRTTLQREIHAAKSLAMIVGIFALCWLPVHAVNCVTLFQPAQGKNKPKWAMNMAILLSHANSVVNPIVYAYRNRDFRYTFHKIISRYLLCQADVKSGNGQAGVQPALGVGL

Compound: Cc1c(-c2ncco2)nc(N)n2nc(CCN3CCn4c(cnc4C4CCCC4)C3)nc12 [Example 17.3, 2-(2-(3-cyclopentyl-5,6-dihydroimidazo[1,5-a]pyrazin-7(8H)-yl)ethyl)-8-methyl-7-(oxazol-2-yl)-[1,2,4]triazolo[1,5-c]pyrimidin-5-amine]
- IC50 [1]: 17.7 nM
- IC50 [2]: 4.2 nM

Compound: Cc1c(-c2ccc(F)c(Cl)c2)nc(N)c2nc(Cc3ccccc3)nn12 [Example 3.33]
- IC50 [1]: 117 nM
- IC50 [2]: 27.2 nM

Compound: Cc1c(-c2cc(F)ccc2F)nc(N)c2nc(Cc3ccc(F)cn3)nn12 [Example 4.4]
- IC50 [1]: 26 nM
- IC50 [2]: 22.8 nM

Compound: Cc1c(-c2cc(F)cc(Cl)c2)nc(N)c2nc(Cc3ccccc3)nn12 [Example 3.28]
- IC50 [1]: 34.4 nM
- IC50 [2]: 2.9 nM

Compound: Cc1c(-c2cncc(C(F)(F)F)c2)nc(N)c2nc(Cc3ccccc3)nn12 [Example 3.22]
- IC50 [1]: 8700 nM
- IC50 [2]: 836 nM

Compound: Cc1c(-c2ncco2)nc(N)n2nc(CCN3CCn4c(cnc4C4CC(F)(F)C4)C3)nc12 [Example 17.2, 2-(2-(3-(3,3-difluorocyclobutyl)-5,6-dihydroimidazo[1,5-a]pyrazin-7(8H)-yl)ethyl)-8-methyl-7-(oxazol-2-yl)-[1,2,4]triazolo[1,5-c]pyrimidin-5-amine]
- IC50 [1]: 20.3 nM
- IC50 [2]: 0.4 nM

Compound: Cc1c(-c2ncco2)nc(N)n2nc(CNCc3cnn(CC(C)(C)O)c3)nc12 [Example 11.5, 1-(4-((((5-amino-8-methyl-7-(oxazol-2-yl)-[1,2,4]triazolo[1,5-c]pyrimidin-2-yl)methyl)amino)methyl)-1H-pyrazol-1-yl)-2-methylpropan-2-ol]
- IC50 [1]: 1320 nM
- IC50 [2]: 15.2 nM

Compound: Cc1c(-c2ncco2)nc(N)n2nc(CCN3Cc4cnn(C)c4C3)nc12 [Example 17.5, 8-methyl-2-(2-(1-methyl-4,6-dihydropyrrolo[3,4-c]pyrazol-5(1H)-yl)ethyl)-7-(oxazol-2-yl)-[1,2,4]triazolo[1,5-c]pyrimidin-5-amine]
- IC50 [1]: 688 nM
- IC50 [2]: 43.6 nM

Compound: Cc1c(-c2ncco2)nc(N)c2nc(Cc3ccc(C(C)(C)O)cc3)nn12 [Example 6.7, 2-(4-((8-amino-5-methyl-6-(oxazol-2-yl)-[1,2,4]triazolo[1,5-a]pyrazin-2-yl)methyl)phenyl)propan-2-ol]
- IC50 [1]: 30.1 nM
- IC50 [2]: 15.7 nM

Compound: Cc1c(-c2ncco2)nc(N)n2nc(CCN3CCn4c(cnc4C45CC(C4)C5)C3)nc12 [Example 17.7, 2-(2-(3-(bicyclo[1.1.1]pentan-1-yl)-5,6-dihydroimidazo[1,5-a]pyrazin-7(8H)-yl)ethyl)-8-methyl-7-(oxazol-2-yl)-[1,2,4]triazolo[1,5-c]pyrimidin-5-amine]
- IC50 [1]: 17.8 nM
- IC50 [2]: 0.6 nM

Compound: Cc1c(-c2cc(F)cc(F)c2F)nc(N)c2nc(Cc3ccccc3)nn12 [Example 3.26]
- IC50 [1]: 2.7 nM
- IC50 [2]: 2.5 nM

Compound: Cc1c(-c2ncco2)nc(N)n2nc(CCN3CCc4c(nnn4C45CC(C4)C5)C3)nc12 [Example 17.15, 2-(2-(1-(bicyclo[1.1.1]pentan-1-yl)-1,4,6,7-tetrahydro-5H-[1,2,3]triazolo[4,5-c]pyridin-5-yl)ethyl)-8-methyl-7-(oxazol-2-yl)-[1,2,4]triazolo[1,5-c]pyrimidin-5-amine]
- IC50 [1]: 32 nM
- IC50 [2]: 2.2 nM

Compound: Cc1c(-c2ncco2)nc(N)n2nc(CCN3CCc4c(cnn4C4CCCC4)C3)nc12 [Example 17.12, 2-(2-(1-cyclopentyl-1,4,6,7-tetrahydro-5H-pyrazolo[4,3-c]pyridin-5-yl)ethyl)-8-methyl-7-(oxazol-2-yl)-[1,2,4]triazolo[1,5-c]pyrimidin-5-amine]
- IC50 [1]: 45 nM
- IC50 [2]: 1.2 nM

Compound: Cc1c(-c2ncco2)nc(N)n2nc(CCc3ccc4c(c3)nnn4C3CC(F)(F)C3)nc12 [Example 22.3, 2-(2-(1-(3,3-Difluorocyclobutyl)-1H-benzo[d][1,2,3]triazol-5-yl)ethyl)-8-methyl-7-(oxazol-2-yl)-[1,2,4]triazolo[1,5-c]pyrimidin-5-amine]
- IC50 [2]: 21.5 nM

Compound: Cc1c(-c2cccc(C(F)(F)F)n2)nc(N)c2nc(Cc3ccccc3)nn12 [Example 3.20]
- IC50 [2]: 157 nM
